Literature values, collected in PubChem BioAssay AID1259409 (Chemical Carcinogenesis Research Information System (CCRIS), 2018).

System: rodent chemically induced tumor inhibition, incidence and multiplicity
Test: CCRIS tumor inhibitor studies

NCCCC(N)(C(=O)O)C(F)F (centres undefined)
tumour outcome (control, treated, inhibition, significance) (Carcinogen: N-ETHYL-N-NITROSOUREA, 759-73-9, Dose [Inhibitor]: 0, 500 MG/KG DIET FOR DURATION OF STUDY BEGINNING POST CARCINOGEN DOSE (STUDY DURATION: 35 WK), Route [Inhibitor]: ORAL, Species: MOUSE, Strain/Sex: PIM/MALE, Target Tissue: Type of Lesion: LYMPHATIC SYSTEM: LYMPHOMA, Dose [Carcinogen]: 50 MG/KG BW ONCE, Promoter: NONE USED): 21/40 (53%), 9/28 (32%), 40%, not significant | tumour outcome (control, treated, inhibition, significance) (Carcinogen: N-ETHYL-N-NITROSOUREA, 759-73-9, Dose [Inhibitor]: 0, 1000 MG/KG DIET FOR DURATION OF STUDY BEGINNING POST CARCINOGEN DOSE (STUDY DURATION: 35 WK), Route [Inhibitor]: ORAL, Species: MOUSE, Strain/Sex: PIM/MALE, Target Tissue: Type of Lesion: LYMPHATIC SYSTEM: LYMPHOMA, Dose [Carcinogen]: 50 MG/KG BW ONCE, Promoter: NONE USED): 21/40 (53%), 16/40 (40%), 26%, not significant | tumour outcome (control, treated, inhibition, significance) (Carcinogen: N-METHYL-N'-NITRO-N-NITROSOGUANIDINE, 70-25-7, Dose [Inhibitor]: 0, 0.5% IN DRINKING WATER ADMINISTERED CONCURRENTLY WITH CARCINOGEN FOR 35 WK (STUDY DURATION: 85 WK), Route [Inhibitor]: ORAL, Species: RAT, Strain/Sex: WISTAR/MALE, Target Tissue: Type of Lesion: DUODENUM: TUMOR, Dose [Carcinogen]: 2.5 MG IN DRINKING WATER FOR 35 WK, Promoter: NONE USED): 4/22 (18%), 9/25 (36%), -100%, not significant | tumour outcome (control, treated, inhibition, significance) (Carcinogen: N-METHYL-N'-NITRO-N-NITROSOGUANIDINE, 70-25-7, Dose [Inhibitor]: 0, 0.5% IN DRINKING WATER ADMINISTERED CONCURRENTLY WITH CARCINOGEN FOR 35 WK (STUDY DURATION: 85 WK), Route [Inhibitor]: ORAL, Species: RAT, Strain/Sex: WISTAR/MALE, Target Tissue: Type of Lesion: STOMACH: ADENOCARCINOMA, Dose [Carcinogen]: 2.5 MG IN DRINKING WATER FOR 35 WK, Promoter: NONE USED): 12/22 (55%), 3/25 (12%), 78%, p<0.005 | tumour outcome (control, treated, inhibition, significance) (Carcinogen: N-METHYL-N'-NITRO-N-NITROSOGUANIDINE, 70-25-7, Dose [Inhibitor]: 0, 0.5% IN DRINKING WATER ADMINISTERED CONCURRENTLY WITH CARCINOGEN FOR 35 WK (STUDY DURATION: 85 WK), Route [Inhibitor]: ORAL, Species: RAT, Strain/Sex: WISTAR/MALE, Target Tissue: Type of Lesion: STOMACH: ADENOMA, Dose [Carcinogen]: 2.5 MG IN DRINKING WATER FOR 35 WK, Promoter: NONE USED): 5/22 (23%), 4/25 (16%), 30%, not significant | tumour outcome (control, treated, inhibition, significance) (Carcinogen: N-METHYL-N'-NITRO-N-NITROSOGUANIDINE, 70-25-7, Dose [Inhibitor]: 0, 0.5% IN DRINKING WATER ADMINISTERED CONCURRENTLY WITH CARCINOGEN FOR 35 WK (STUDY DURATION: 85 WK), Route [Inhibitor]: ORAL, Species: RAT, Strain/Sex: WISTAR/MALE, Target Tissue: Type of Lesion: STOMACH: SARCOMA, Dose [Carcinogen]: 2.5 MG IN DRINKING WATER FOR 35 WK, Promoter: NONE USED): 2/22 (9%), 0/25 (0%), 100%, not significant | tumour outcome (control, treated, inhibition, significance) (Carcinogen: N-METHYL-N'-NITRO-N-NITROSOGUANIDINE, 70-25-7, Dose [Inhibitor]: 0, 1% IN DRINKING WATER ADMINISTERED CONCURRENTLY WITH CARCINOGEN FOR 35 WK (STUDY DURATION: 85 WK), Route [Inhibitor]: ORAL, Species: RAT, Strain/Sex: WISTAR/MALE, Target Tissue: Type of Lesion: DUODENUM: TUMOR, Dose [Carcinogen]: 2.5 MG IN DRINKING WATER FOR 35 WK, Promoter: NONE USED): 4/22 (18%), 9/25 (36%), -100%, not significant | tumour outcome (control, treated, inhibition, significance) (Carcinogen: N-METHYL-N'-NITRO-N-NITROSOGUANIDINE, 70-25-7, Dose [Inhibitor]: 0, 1% IN DRINKING WATER ADMINISTERED CONCURRENTLY WITH CARCINOGEN FOR 35 WK (STUDY DURATION: 85 WK), Route [Inhibitor]: ORAL, Species: RAT, Strain/Sex: WISTAR/MALE, Target Tissue: Type of Lesion: STOMACH: ADENOCARCINOMA, Dose [Carcinogen]: 2.5 MG IN DRINKING WATER FOR 35 WK, Promoter: NONE USED): 12/22 (55%), 5/25 (20%), 64%, p<0.05 | tumour outcome (control, treated, inhibition, significance) (Carcinogen: N-METHYL-N'-NITRO-N-NITROSOGUANIDINE, 70-25-7, Dose [Inhibitor]: 0, 1% IN DRINKING WATER ADMINISTERED CONCURRENTLY WITH CARCINOGEN FOR 35 WK (STUDY DURATION: 85 WK), Route [Inhibitor]: ORAL, Species: RAT, Strain/Sex: WISTAR/MALE, Target Tissue: Type of Lesion: STOMACH: ADENOMA, Dose [Carcinogen]: 2.5 MG IN DRINKING WATER FOR 35 WK, Promoter: NONE USED): 5/22 (23%), 3/25 (12%), 48%, not significant | tumour outcome (control, treated, inhibition, significance) (Carcinogen: N-METHYL-N'-NITRO-N-NITROSOGUANIDINE, 70-25-7, Dose [Inhibitor]: 0, 1% IN DRINKING WATER ADMINISTERED CONCURRENTLY WITH CARCINOGEN FOR 35 WK (STUDY DURATION: 85 WK), Route [Inhibitor]: ORAL, Species: RAT, Strain/Sex: WISTAR/MALE, Target Tissue: Type of Lesion: STOMACH: SARCOMA, Dose [Carcinogen]: 2.5 MG IN DRINKING WATER FOR 35 WK, Promoter: NONE USED): 2/22 (9%), 3/25 (12%), -33%, not significant | tumour outcome (control, treated, inhibition, significance) (Carcinogen: N-METHYL-N-BENZYLNITROSAMINE, 937-40-6, Dose [Inhibitor]: 0, 1% IN DEIONIZED WATER WITH ZINC-DEFICIENT DIET FOR 15 WK STARTING 1 HR POST CARCINOGEN TREATMENT (STUDY DURATION: 20, Route [Inhibitor]: ORAL, Species: RAT, Strain/Sex: SPRAGUE-DAWLEY/MALE, Target Tissue: Type of Lesion: ESOPHAGUS: TUMOR, Dose [Carcinogen]: 2 MG/KG BW ONCE ADMINISTERED AFTER 5 WK OF ZINC-DEFICIENT DIET TREATMENT): 89% (8/9), 10% (2/20), 89%, p<0.0001 | tumour outcome (control, treated, inhibition, significance) (Carcinogen: N-METHYL-N-NITROSOUREA, 684-93-5, Dose [Inhibitor]: 0, 0.5 IN 2% NORMAL URINE INTO HETEROTOPICALLY TRANSPLANTED BLADDER 2/WK FOR 22 WK BEGINNING 1 WK POST CARCINOGEN (STUDY, Route [Inhibitor]: INJECTION, Species: RAT, Strain/Sex: F344/MALE, Target Tissue: Type of Lesion: BLADDER: TRANSITIONAL CELL CARCINOMA, Dose [Carcinogen]: 0.25 MG IN 0.9% SALINE 1/WK FOR 3 WK INTO BLADDER 4 WK AFTER HETEROTOPIC TRANSPLANT INTO GLUTEAL MUSCLE): 31/38 (82%), 5/37 (16%), 80%, p<0.001 | tumour outcome (control, treated, inhibition, significance) (Carcinogen: N-METHYL-N-NITROSOUREA, 684-93-5, Dose [Inhibitor]: 0, 0.5 IN 2% NORMAL URINE INTO HETEROTOPICALLY TRANSPLANTED BLADDER 2/WK FOR 29 WK BEGINNING 1 WK POST CARCINOGEN (STUDY, Route [Inhibitor]: INJECTION, Species: RAT, Strain/Sex: F344/MALE, Target Tissue: Type of Lesion: BLADDER: TRANSITIONAL CELL CARCINOMA, Dose [Carcinogen]: 0.25 MG IN 0.9% SALINE ONCE INTO BLADDER 4 WK AFTER HETEROTOPIC TRANSPLANT INTO GLUTEAL MUSCLE): 15/35 (43%), 3/34 (9%), 79%, p<0.005 | tumour outcome (control, treated, inhibition, significance) (Carcinogen: N-METHYL-N-NITROSOUREA, 684-93-5, Dose [Inhibitor]: 0.5 ML OF 2% AGENT IN 0.9% SALINE SOLUTION TWICE IN WK 1 THEN ONCE 2 HR POST CARCINOGEN DOSE THEN TWICE IN WEEK 2 (STUDY, Route [Inhibitor]: INTRAVESICAL, Species: RAT, Strain/Sex: F344/MALE, Target Tissue: Type of Lesion: BLADDER: CARCINOMA, Dose [Carcinogen]: 0.25 MG IN 0.5 ML OF 0.9% SALINE SOLUTION ONCE, Promoter: URINE): 25/36 (69%), 25/37 (68%), 1%, not calculated
